Results from US12357603B2, “Acyl sulfonamides for treating cancer” (Bayer Aktiengesellschaft, priority 2019, dated 2025).
Read-outs that look alike come from different tables or passages of the source.

What was measured:
[1] = tested on: ESR1 transcription (luciferase signal in MVLN cells); assay: Repression of ESR1 transcription, luciferase reporter in MVLN cells; assay type: cell-based; conditions: inhibition of luciferase signal in MVLN cells, arithmetic mean
In short: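 MVLN cells (constitutive ER, stably carrying a Vitellogenin A2 hormone-responsive element–luciferase reporter) treated in duplicate; luciferase read after 24 h. Cell density checked by Alamar Blue fluorescence (530/590 nm) after 2 h to exclude cell-loss effects.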

[2] = target: Recombinant human His-tagged Kat6a protein (amino acids 194-810) (Homo sapiens (Human), UniProt Q92794); assay: Kat6a activity assay (TR-FRET, acetylation of biotinylated Histone-H4-derived peptide); assay type: biochemical; conditions: 60 mins at 22° C., read-out: KAT6A-DPF/HAT domain IC50 [mol/l] (arithmetic mean)
In short: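 Sf9-expressed human His-Kat6a (aa 194-810) incubated 60 min at 22 °C with compounds (0.01-20 μM) in Tris pH 8 buffer containing 220 nM biotinylated H4 peptide (aa 1-24) and 600 nM acetyl-CoA. Acetyl-K8 detected by TR-FRET (665/620 nm ratio); IC50 by four-parameter fit versus DMSO controls.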

[3] = tested on: MDA-MB-436 cells; assay: Proliferation assay MDA-MB-436, negative control cell line (Alamar Blue, 144 h); assay type: cell-based; conditions: arithmetic mean
In short: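 MDA-MB-436 cells (3000/well, DMEM/Ham's F12 with 2.5% FBS) treated 24 h after plating with compounds at 2.0×10E-5 to 2.0×10E-9 M (9 dilutions, 0.2% DMSO), triplicates, 144 h at 37 °C, 5% CO2. Viability by Alamar Blue, 2 h, fluorescence at 590 nm.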

[4] = target: Recombinant human GST-tagged Kat6b protein (431-end) (Homo sapiens, UniProt Q8WYB5); assay: Kat6b activity assay (TR-FRET, acetylation of biotinylated Histone-H4-derived peptide); assay type: biochemical; conditions: 30 mins at 22° C., read-out: KAT6B activity assay IC50 [mol/l] (arithmetic mean)
[5] = tested on: ZR-75-1 cells; assay: Proliferation assay ZR-75-1 (Alamar Blue, 144 h); assay type: cell-based; conditions: arithmetic mean, read-out: ZR75-1 proliferation assay, EC50 [M] (arithmetic mean)
In short: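 Cells seeded at 3000/well in RPMI 1640 with 2.5% FBS and treated 24 h later across 2.0×10E-5 to 2.0×10E-9 M (9 dilutions, 0.2% DMSO, triplicate). After 144 h at 37 °C, 5% CO2, viability read by Alamar Blue fluorescence at 590 nm following 2 h reagent incubation.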

[6] = tested on: EFM-19 cells; assay: Proliferation assay EFM-19 (Alamar Blue, 144 h); assay type: cell-based; conditions: Homo sapiens, EFM19, breast carcinoma, read-out: proliferation assays
Experimental: (§1) Assessment of the Anti-Proliferative Effect of Compounds in Different Cell Lines
(§2) To determine further cancer indications that respond to treatment with KAT6A or KAT6B3 inhibitors various cell lines carrying a KAT6A and/or KAT6B3 focal amplification or high KAT6A and/or KAT6B3 protein expression were used for proliferation assays with selected compounds.
(§3) 24 hours later, cells were treated with compounds (stock solution, 10 mM in DMSO) using the HP D300 Digital Dispenser in a concentration range of 2.0×10E-5 M to 2.0×10E-9 M in a single-dot curve with 9 dilutions and a DMSO concentration of 0.2%. Each sample was prepared as triplicate and rim wells were excluded. Plates were incubated at 37° C. and 5% CO2 for 144 h. Cell viability was measured by adding 10 μL of Alamar Blue Reagent (Invitrogen #DAL 1100) and plates were incubated for 2 h at 37° C. and 5% CO2. Fluorescence was measured at 590 nm wavelength with a Tecan Spark or Victor X3 MTP-Reader (PerkinElmer).

[7] = tested on: COLO 684 cells; assay: Proliferation assay COLO 684 (Alamar Blue, 144 h); assay type: cell-based; conditions: Homo sapiens, COLO684, uterus adenocarcinoma, read-out: proliferation assays
Experimental: as §1, §2, §3

[8] = tested on: THP-1 cells; assay: Proliferation assay THP-1 (Alamar Blue, 144 h); assay type: cell-based; conditions: Homo sapiens, THP1, acute monocytic leukemia, read-out: proliferation assays
Experimental: as §1, §2, §3

[9] = tested on: JMSU-1 cells; assay: Proliferation assay JMSU-1 (Alamar Blue, 144 h); assay type: cell-based; conditions: JMSU1, bladder carcinoma, read-out: proliferation assays
Experimental: as §1, §2, §3

[10] = tested on: LNCAP cells; assay: Proliferation assay LNCAP (Alamar Blue, 144 h); assay type: cell-based; conditions: Homo sapiens, prostate carcinoma, 10 nM R1881, read-out: proliferation assays
Experimental: as §1, §2, §3

[11] = tested on: DMS 53 cells; assay: Proliferation assay DMS 53 (Alamar Blue, 144 h); assay type: cell-based; conditions: Homo sapiens, DMS53, small cell lung cancer, read-out: proliferation assays
Experimental: as §1, §2, §3

[12] = tested on: T47D cells; assay: Proliferation assay T47D (Alamar Blue, 144 h); assay type: cell-based; conditions: Homo sapiens, breast ductal carcinoma, read-out: proliferation assays
Experimental: as §1, §2, §3

[13] = tested on: LCLC-97TM1 cells; assay: Proliferation assay LCLC-97TM1 (Alamar Blue, 144 h); assay type: cell-based; conditions: Homo sapiens, LCLC97TM1, large cell lung carcinoma, read-out: proliferation assays
Experimental: as §1, §2, §3

[14] = tested on: DMS 114 cells; assay: Proliferation assay DMS 114 (Alamar Blue, 144 h); assay type: cell-based; conditions: Homo sapiens, DMS114, small cell lung cancer, read-out: proliferation assays
Experimental: as §1, §2, §3

[15] = target: Recombinant human GST-tagged Kat6b protein (431-end); assay: Kat6b activity assay (TR-FRET, acetylation of biotinylated Histone-H4-derived peptide); assay type: biochemical; conditions: 30 mins at 22° C., read-out: KAT6B activity assay IC50 [mol/l] (arithmetic mean)
[16] = tested on: CAMA-1 cells; assay: Proliferation assay CAMA-1 (Alamar Blue, 144 h); assay type: cell-based; conditions: Homo sapiens, CAMA1, breast adenocarcinoma, read-out: proliferation assays
Experimental: as §1, §2, §3

[17] = Homo sapiens, MDA-MB-436, 144 h

Chain of Recombinant human His-tagged Kat6a protein (amino acids 194-810) (Q92794 194-810): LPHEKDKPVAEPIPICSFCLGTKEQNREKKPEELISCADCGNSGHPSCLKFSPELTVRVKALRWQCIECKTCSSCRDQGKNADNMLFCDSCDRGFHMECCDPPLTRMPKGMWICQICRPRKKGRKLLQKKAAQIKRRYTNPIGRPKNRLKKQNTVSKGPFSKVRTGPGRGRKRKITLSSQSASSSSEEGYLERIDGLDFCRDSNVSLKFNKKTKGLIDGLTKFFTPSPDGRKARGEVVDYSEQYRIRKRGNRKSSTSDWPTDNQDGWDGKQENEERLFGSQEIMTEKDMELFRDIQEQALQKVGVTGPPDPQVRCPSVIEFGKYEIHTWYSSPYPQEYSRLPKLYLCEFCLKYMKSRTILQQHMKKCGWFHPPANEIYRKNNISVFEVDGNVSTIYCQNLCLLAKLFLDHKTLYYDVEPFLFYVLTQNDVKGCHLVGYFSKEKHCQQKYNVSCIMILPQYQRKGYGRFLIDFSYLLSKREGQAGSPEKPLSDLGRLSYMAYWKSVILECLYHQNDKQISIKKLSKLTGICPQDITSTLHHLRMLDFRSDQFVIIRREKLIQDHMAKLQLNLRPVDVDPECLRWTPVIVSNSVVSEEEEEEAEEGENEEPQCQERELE
Chain of Recombinant human GST-tagged Kat6b protein (431-end) (Homo sapiens, UniProt Q8WYB5) (Q8WYB5 whole entry, looked up): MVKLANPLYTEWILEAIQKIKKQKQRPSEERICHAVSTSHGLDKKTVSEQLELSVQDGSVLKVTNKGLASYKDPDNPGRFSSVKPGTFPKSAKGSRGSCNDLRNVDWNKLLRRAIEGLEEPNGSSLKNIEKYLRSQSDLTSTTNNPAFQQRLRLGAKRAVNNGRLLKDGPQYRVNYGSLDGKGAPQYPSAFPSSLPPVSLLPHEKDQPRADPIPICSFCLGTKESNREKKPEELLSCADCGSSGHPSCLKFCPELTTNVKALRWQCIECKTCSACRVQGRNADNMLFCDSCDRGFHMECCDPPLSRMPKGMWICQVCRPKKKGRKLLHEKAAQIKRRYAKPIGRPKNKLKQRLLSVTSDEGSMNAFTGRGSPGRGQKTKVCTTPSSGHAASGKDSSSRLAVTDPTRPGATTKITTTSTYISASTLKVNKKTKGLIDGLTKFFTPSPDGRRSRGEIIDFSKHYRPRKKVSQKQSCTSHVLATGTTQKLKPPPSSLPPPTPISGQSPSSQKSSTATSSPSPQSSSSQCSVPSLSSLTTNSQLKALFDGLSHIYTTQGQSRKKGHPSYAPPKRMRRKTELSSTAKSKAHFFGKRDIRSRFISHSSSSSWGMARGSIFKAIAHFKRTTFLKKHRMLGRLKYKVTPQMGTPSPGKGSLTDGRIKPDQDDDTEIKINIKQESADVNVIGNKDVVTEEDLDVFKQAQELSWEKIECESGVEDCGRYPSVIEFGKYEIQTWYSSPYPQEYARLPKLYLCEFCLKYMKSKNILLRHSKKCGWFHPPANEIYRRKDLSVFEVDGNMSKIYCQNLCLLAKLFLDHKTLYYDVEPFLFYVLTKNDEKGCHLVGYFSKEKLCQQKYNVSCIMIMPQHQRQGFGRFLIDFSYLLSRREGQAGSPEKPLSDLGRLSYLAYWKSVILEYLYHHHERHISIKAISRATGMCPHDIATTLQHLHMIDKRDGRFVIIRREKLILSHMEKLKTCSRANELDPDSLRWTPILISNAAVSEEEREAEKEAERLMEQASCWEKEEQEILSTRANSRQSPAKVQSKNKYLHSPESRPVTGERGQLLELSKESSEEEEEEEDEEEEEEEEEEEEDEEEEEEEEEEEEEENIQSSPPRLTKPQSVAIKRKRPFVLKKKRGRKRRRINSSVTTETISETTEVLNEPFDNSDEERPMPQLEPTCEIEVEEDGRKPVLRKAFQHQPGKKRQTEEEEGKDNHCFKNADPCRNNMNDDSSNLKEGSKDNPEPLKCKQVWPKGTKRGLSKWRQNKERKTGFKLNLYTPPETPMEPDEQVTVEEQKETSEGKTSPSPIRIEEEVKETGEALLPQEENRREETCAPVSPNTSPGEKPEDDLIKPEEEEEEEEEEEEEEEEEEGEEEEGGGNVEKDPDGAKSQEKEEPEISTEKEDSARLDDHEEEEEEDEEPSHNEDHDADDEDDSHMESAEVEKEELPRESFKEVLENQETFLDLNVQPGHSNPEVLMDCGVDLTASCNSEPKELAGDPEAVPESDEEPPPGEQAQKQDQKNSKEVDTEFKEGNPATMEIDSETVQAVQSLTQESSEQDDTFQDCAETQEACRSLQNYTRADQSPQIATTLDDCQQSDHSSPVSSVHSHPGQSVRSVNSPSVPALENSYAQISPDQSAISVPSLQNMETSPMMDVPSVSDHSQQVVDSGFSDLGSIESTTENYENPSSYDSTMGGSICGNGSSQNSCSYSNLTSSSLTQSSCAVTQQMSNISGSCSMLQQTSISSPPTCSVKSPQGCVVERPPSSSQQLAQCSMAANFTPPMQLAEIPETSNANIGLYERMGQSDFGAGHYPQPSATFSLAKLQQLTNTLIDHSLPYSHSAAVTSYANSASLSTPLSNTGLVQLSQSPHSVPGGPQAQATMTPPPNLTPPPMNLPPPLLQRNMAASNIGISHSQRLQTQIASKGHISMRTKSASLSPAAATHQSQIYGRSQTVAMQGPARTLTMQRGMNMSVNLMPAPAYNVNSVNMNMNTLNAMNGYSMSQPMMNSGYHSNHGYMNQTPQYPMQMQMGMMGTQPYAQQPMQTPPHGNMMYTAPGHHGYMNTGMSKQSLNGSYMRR

Compound	IC50 ([1]; Homo sapiens, MVLN)	IC50 [2]	EC50 [3, 17]	IC50 [15]	EC50 ([5]; Homo sapiens, ZR-75-1, 144 h)	other results
CN(C)c1ccc2cc(C(=O)NS(=O)(=O)c3ccccc3-c3ccccc3)oc2c1 [Example 14, N-([1,1′-Biphenyl]-2-sulfonyl)-6-(dimethylamino)-1-benzofuran-2-carboxamide]	121 nM		18.4 µM			EC50 [6]: 223 nM; EC50 [7]: 184 nM; EC50 [8]: 238 nM; EC50 [9]: 605 nM; EC50 [10]: 4.16 µM; EC50 [5]: 1.2e-07 M; EC50 [11]: 490 nM
CCOc1ccccc1S(=O)(=O)NC(=O)c1cc2ccc(N(C)C)cc2o1 [Example 19, 6-(Dimethylamino)-N-(2-ethoxybenzene-1-sulfonyl)-1-benzofuran-2-carboxamide]		84.6 nM		66.9 nM		EC50 [6]: 105 nM; EC50 [7]: 156 nM; EC50 [8]: 95.8 nM; IC50 [1]: 42.2 nM; EC50 [12]: 170 nM; EC50 [13]: 447 nM; EC50 [9]: 70.6 nM; EC50 [3]: > 20 µM; EC50 [14]: 136 nM; EC50 [10]: 1.63 µM; EC50 [16]: 268 nM; EC50 [5]: 5.96e-08 M; EC50 [11]: 130 nM
CCCOc1ccccc1S(=O)(=O)NC(=O)c1cc2ccc(N(C)C)cc2o1 [Example 23, 6-(Dimethylamino)-N-(2-propoxybenzene-1-sulfonyl)-1-benzofuran-2-carboxamide]	98 nM	79.3 nM	> 20 µM	99.2 nM	2.34e-08 M	EC50 [6]: 155 nM; EC50 [7]: 92.9 nM; EC50 [12]: 197 nM; EC50 [13]: 157 nM; EC50 [14]: 205 nM; EC50 [10]: > 20 µM; EC50 [16]: 415 nM; EC50 [11]: 367 nM
CN(C)c1ccc2cc(C(=O)NS(=O)(=O)c3cccc4c3OC(F)(F)C(F)(F)O4)oc2c1 [Example 134, 6-(Dimethylamino)-N-(2,2,3,3-tetrafluoro-2,3-dihydro-1,4-benzodioxine-5-sulfonyl)-1-benzofuran-2-carboxamide]		30.7 nM				IC50 [1]: 76.8 nM; EC50 [3]: > 20 µM; IC50 [4]: 25.9 nM; EC50 [5]: 1.26e-07 M
CN(C)c1ccc2cc(C(=O)NS(=O)(=O)c3cc(C(C)(C)C)ccc3OC3CCC3)oc2c1 [Example 182, N-[(5-(tert-butyl)-2-cyclobutoxyphenyl)sulfonyl]-6-(dimethylamino)benzofuran-2-carboxamide]	22 nM	2.67 nM	> 20 µM	11.9 nM	6.1e-08 M	
CC(C)c1ccc(OC2CCC2)c(S(=O)(=O)NC(=O)c2cc3ccc(N(C)C)cc3o2)c1 [Example 184, N-((2-Cyclobutoxy-5-isopropylphenyl)sulfonyl)-6-(dimethylamino)benzofuran-2-carboxamide]	22.5 nM	15.9 nM	> 20 µM		6.98e-07 M	IC50 [4]: 47.8 nM
CN(C)c1ccc2cc(C(=O)NS(=O)(=O)c3ccccc3-c3ccccc3)oc2c1C(F)(F)F [Example 202, N-([1,1′-biphenyl]-2-sulfonyl)-6-(dimethylamino)-7-(trifluoromethyl)-1-benzofuran-2-carboxamide]	> 20000 nM	1970 nM	> 20 µM	3010 nM	> 2e-05 M	
CCOc1ccccc1S(=O)(=O)NC(=O)c1cc2ccc(N(C)C)cc2o1 [Example 223]	80.2 nM	106 nM	> 20 µM	99.1 nM	5.87e-08 M	
CC(C)Oc1ccccc1S(=O)(=O)NC(=O)c1cc2ccc(N(C)C)cc2o1 [Example 224]	31.4 nM	58.3 nM	> 20 µM	76.4 nM	5.24e-08 M	
Cc1ccc2cccc(S(=O)(=O)NC(=O)c3cc4ccc(N(C)C)cc4o3)c2n1 [Example 225]	36.2 nM	22.7 nM	> 20 µM	25.8 nM	7.21e-08 M	

More lines, main results first:

IC50 ([1]; Homo sapiens, MVLN)	IC50 [2]	EC50 [3, 17]	IC50 [15]	Compound	EC50 ([5]; Homo sapiens, ZR-75-1, 144 h)	other results
23.6 nM	8.47 nM	> 20 µM		CC(C)c1ccc(OCC2CC2(F)F)c(S(=O)(=O)NC(=O)c2cc3ccc(N(C)C)cc3o2)c1 (racemic) [Example 186, N-((2-((2,2-difluorocyclopropyl)methoxy)-5-isopropylphenyl)sulfonyl)-6-(dimethylamino)benzofuran-2-carboxamide (rac)]	5.59e-08 M	IC50 [4]: 26.1 nM
15.1 nM	2.63 nM	> 20 µM	13.9 nM	COc1ccc(C(C)(C)C)cc1S(=O)(=O)NC(=O)c1cc2ccc(N(C)C)cc2o1 [Example 185, N-((5-(tert-butyl)-2-methoxyphenyl)sulfonyl)-6-(dimethylamino)benzofuran-2-carboxamide]	1.69e-08 M	
1690 nM	7.14 nM	> 20 µM	12.8 nM	CN(C)c1cc(C(F)(F)F)c2cc(C(=O)NS(=O)(=O)c3ccccc3-c3ccccc3)oc2c1 [Example 193, N-([1,1′-biphenyl]-2-ylsulfonyl)-6-(dimethylamino)-4-(trifluoromethyl)benzofuran-2-carboxamide]	6.55e-06 M	
716 nM	5.73 nM	> 20 µM	14.7 nM	CCOc1ccccc1S(=O)(=O)NC(=O)c1cc2c(C(F)(F)F)cc(N(C)C)cc2o1 [Example 195, 6-(Dimethylamino)-N-((2-ethoxyphenyl)sulfonyl)-4-(trifluoromethyl)benzofuran-2-carboxamide]	8.71e-07 M	
295 nM	1.47 nM	> 14.1 µM	1.78 nM	Cc1ccc2cccc(S(=O)(=O)NC(=O)c3cc4c(C(F)(F)F)cc(N(C)C)cc4o3)c2n1 [Example 196, 6-(Dimethylamino)-N-((2-methylquinolin-8-yl)sulfonyl)-4-(trifluoromethyl)benzofuran-2-carboxamide]	2.12e-06 M	
